In patent US20240217968A1, “PHARMACEUTICAL COMPOUND” (DUKE STREET BIO LIMITED, priority 2021, published 2024):

Target: T1, recombinant human Flag-tagged PARP7 (amino acids 456-657) (Homo sapiens, UniProt Q7Z3E1)
T1 construct: recombinant human Flag-tagged PARP7 (amino acids 456-657)
T1 sequence (Q7Z3E1 456-657): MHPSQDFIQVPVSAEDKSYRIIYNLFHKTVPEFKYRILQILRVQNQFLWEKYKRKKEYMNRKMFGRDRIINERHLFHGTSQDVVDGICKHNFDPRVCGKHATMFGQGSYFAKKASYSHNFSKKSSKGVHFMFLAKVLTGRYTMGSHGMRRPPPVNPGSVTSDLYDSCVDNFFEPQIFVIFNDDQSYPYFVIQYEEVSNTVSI
Test: PARP7 biochemical DELFIA assay (auto-MARylation)
Conditions: DELFIA readout, IC50 class
Procedure, shortened: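 Flag-PARP7 (456-657), 12.5-37.5 nM stock, captured on anti-FLAG wells, preincubated 30 min with compound, then auto-MARylated with biotin-NAD+ (15 μM stock) in HEPES pH 7.5/NaCl/DTT/BSA/Tween for 2-3 h at room temperature. NAD+ quench; Eu-streptavidin DELFIA read, Ex337/Em620 nm.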

Structure (SMILES)	IC50
Nc1nc(N2CCN(C(=O)CCOCCc3cccc4c(=O)[nH]ncc34)CC2)ncc1C(F)(F)F [Compound 159]	100 to 1000 nM
CC(COCCC(=O)N1CCN(c2ncc(C(F)(F)F)cn2)CC1)c1cc(Cl)cc2c(=O)[nH]ncc12 (stereo not shown) [Compound 162]	100 to 1000 nM
CC(COCCC(=O)N1CCN(c2ncc(C(F)(F)F)cn2)CC1)c1cc(Cl)cc2c(=O)[nH]ncc12 (stereo not shown) [Compound 163]	≤ 100 nM
O=C(OCCCCc1cccc2c(=O)[nH]ncc12)N1CCN(c2ncc(C(F)(F)F)cn2)CC1 [Compound 165]	≤ 100 nM
CN(CCCC(=O)N1CCN(c2ncc(C(F)(F)F)cn2)CC1)Cc1cccc2c(=O)[nH]ncc12 [Compound 167]	100 to 1000 nM
Cc1nc2c(=O)[nH]ncc2n1CCOCCC(=O)N1CCN(c2ncc(C(F)(F)F)cn2)CC1 [Compound 170]	100 to 1000 nM
O=C(CCOCCn1nc(C(F)(F)F)c2c(=O)[nH]ncc21)N1CCN(c2nc3cc(Cl)ccc3o2)CC1 [Compound 171]	≤ 100 nM
O=C(CCOCCc1cccc2c(=O)[nH]ncc12)N1CCN(c2nc3cc(Cl)ccc3o2)CC1 [Compound 172]	≤ 100 nM
O=C(CCOCCc1cccc2c(=O)[nH]ncc12)N1CCN(c2nc3ccc(F)cc3o2)CC1 [Compound 180]	≤ 100 nM
O=C(CCOCCn1nc(C(F)(F)F)c2c(=O)[nH]ncc21)N1CCN(c2nc3ccc(F)cc3o2)CC1 [Compound 183]	≤ 100 nM
O=C(CCOCCn1nc(C(F)(F)F)c2c(=O)[nH]ncc21)N1CCN(c2nc3ccc(Cl)cc3o2)CC1 [Compound 191]	≤ 100 nM
N#Cc1ccc2nc(N3CCN(C(=O)CCOCCc4cccc5c(=O)[nH]ncc45)CC3)oc2c1 [Compound 192]	≤ 100 nM
Cn1c(N2CCN(C(=O)CCOCCn3nc(C(F)(F)F)c4c(=O)[nH]ncc43)CC2)nc2ccccc21 [Compound 195]	≤ 100 nM
N#Cc1ccc2oc(N3CCN(C(=O)CCOCCn4nc(C(F)(F)F)c5c(=O)[nH]ncc54)CC3)nc2c1 [Compound 196]	≤ 100 nM
O=C(CCOCCc1cccc2c(=O)[nH]ncc12)N1CCC(Oc2ccccc2)CC1 [Compound 197]	100 to 1000 nM

Now from value to compound:

IC50	Structure (SMILES)
≤ 100 nM	CC1CN(c2ncc(C(F)(F)F)cn2)CCN1C(=O)CCOCCn1nc(C(F)(F)F)c2c(=O)[nH]ncc21 (stereo not shown) [Compound 160]
≤ 100 nM	CC1CN(c2ncc(C(F)(F)F)cn2)CCN1C(=O)CCOCCn1nc(C(F)(F)F)c2c(=O)[nH]ncc21 (stereo not shown) [Compound 161]
≤ 100 nM	CCc1cn(CCOCCC(=O)N2CCN(c3ncc(C(F)(F)F)cn3)CC2)c2cn[nH]c(=O)c12 [Compound 164]
≤ 100 nM	CC(COCCC(=O)N1CCN(c2ncc(C(F)(F)F)cn2)CC1)n1ncc2c(=O)[nH]ncc21 (stereo not shown) [Compound 168]
100 to 1000 nM	CC(COCCC(=O)N1CCN(c2ncc(C(F)(F)F)cn2)CC1)n1ncc2c(=O)[nH]ncc21 (stereo not shown) [Compound 169]
≤ 100 nM	CC1(C)CN(C(=O)CCOCCn2nc(C(F)(F)F)c3c(=O)[nH]ncc32)CCN1c1ccc(C(F)(F)F)cn1 [Compound 173]
≤ 100 nM	CC(COCCC(=O)N1CCN(c2ccc(C(F)(F)F)cn2)CC1)n1nc(C(F)(F)F)c2c(=O)[nH]ncc21 (stereo not shown) [Compound 178]
≤ 100 nM	CC(COCCC(=O)N1CCN(c2ccc(C(F)(F)F)cn2)CC1)n1nc(C(F)(F)F)c2c(=O)[nH]ncc21 (stereo not shown) [Compound 179]
≤ 100 nM	CC1(C)CN(C(=O)CCOCCn2nc(C(F)(F)F)c3c(=O)[nH]ncc32)CCN1c1ncc(C(F)(F)F)cn1 [Compound 182]
100 to 1000 nM	O=C(CCOCCn1c(C(F)(F)F)nc2c(=O)[nH]ncc21)N1CCN(c2ncc(C(F)(F)F)cn2)CC1 [Compound 184]
≤ 100 nM	CC(COCCC(=O)N1CCN(c2ncc(Cl)cn2)CC1)n1nc(C(F)(F)F)c2c(=O)[nH]ncc21 (stereo not shown) [Compound 186]
≤ 100 nM	CC1(C)CN(c2ncc(C(F)(F)F)cn2)CCN1C(=O)CCOCCn1nc(C(F)(F)F)c2c(=O)[nH]ncc21 [Compound 193]
≤ 100 nM	O=C(CCOCCn1cc(C(F)F)c2c(=O)[nH]ncc21)N1CCN(c2ncc(C(F)(F)F)cn2)CC1 [Compound 198]
